Measurements taken from paper PMC6664433 (Cancer discovery, 2019).

How the values were obtained:
EGFR-mutant models = conditions: without cetuximab; cited from earlier work
EGFR = experiment: Biotinylated EAI045 pull-down assay; format: binding; conditions: following osimertinib treatment
[1] = tested on: EGFR L858R/T790M/C797S genetically engineered mice; experiment: Efficacy study in GEM mice; format: in vivo
[2] = tested on: EGFR L858R/T790M/C797S genetically engineered mice; experiment: Pharmacodynamic study in GEM mice; format: in vivo; conditions: oral gavage once daily, 3 doses
L858R/T790M EGFR = L858R/T790M EGFR (Homo sapiens, UniProt P00533, L858R/T790M); experiment: HTRF-based EGFR biochemical assay; conditions: read-out: IC50 (biochemical potency); enzyme 20pM, 100µM ATP
L858R/T790M Ba/F3 cells = experiment: ENU mutagenesis resistant colony assay; conditions: after ENU; 1μM osimertinib, 10μM JBJ-04-125-02, or combination; of 300 colonies
[3] = tested on: H1975 xenograft mouse model; conditions: for tumor volume change at day 18: osimertinib 2.5mg/kg, JBJ-04-125-02 100mg/kg, or both
H3255GR cells [4] = experiment: IncuCyte Caspase-3/7 apoptosis assay; format: cell-based, human; conditions: 0.1μM osimertinib, 10μM allosteric inhibitor, or both; 72 hours
[5] = tested on: Ba/F3 cells containing the L858R/C797S mutation; experiment: Ba/F3 cell proliferation; format: cell-based, murine; conditions: compared to gefitinib
parental Ba/F3 cells = experiment: Ba/F3 cell proliferation; format: cell-based, murine; conditions: 72 hours
MAP4K5 = MAP4K5 (Homo sapiens, UniProt Q9Y4K4); experiment: KINOMEscan kinome selectivity profiling; format: binding; conditions: 10µM
panel of 468 kinases = experiment: KINOMEscan kinome selectivity profiling; format: binding, human; conditions: 10µM, 35% cut-off
H1975 cells [6] = experiment: Western blotting of EGFR, AKT, ERK1/2 phosphorylation; conditions: 4 hours, compared to osimertinib
Pharmacokinetic study = format: in vivo
[7] = tested on: Ba/F3 cells harboring EGFR Del_19 variants; experiment: Ba/F3 cell proliferation; format: cell-based, murine; conditions: 72 hours
H3255GR cells [8] = experiment: IncuCyte long-term confluency assay; format: cell-based, human; conditions: osimertinib 1μM, JBJ-04-125-02 10μM or both, 2 weeks of treatment
[9] = tested on: Ba/F3 cell lines stably transfected with EGFR L858R, L858R/T790M or L858R/T790M/C797S; experiment: Ba/F3 cell proliferation; format: cell-based, murine; conditions: single agent, 72 hours
[10] = tested on: Del_19-containing EGFR mutants; experiment: KINOMEscan kinome selectivity profiling; format: binding, human; conditions: 10µM
H1975 cells [11] = experiment: Cell viability assay; conditions: 72 hours
TIE2 = TIE2 (Homo sapiens, UniProt Q02763); experiment: KINOMEscan kinome selectivity profiling; format: binding; conditions: 10µM
[12] = tested on: wild-type EGFR Ba/F3 cells; experiment: Ba/F3 cell proliferation; format: cell-based, murine; conditions: 72 hours
TIE1 = TIE1 (Homo sapiens, UniProt P35590); experiment: KINOMEscan kinome selectivity profiling; format: binding; conditions: 10µM
[13] = tested on: H1975 xenograft mouse model; experiment: Pharmacodynamic study in H1975 xenograft; conditions: 3 doses; JBJ-04-125-02 100mg/kg, osimertinib 25mg/kg
H3255GR cells [14] = experiment: Cell viability assay; conditions: 72 hours
[15] = tested on: EGFR-mutant NSCLC patients; conditions: cited from earlier work; for PFS: osimertinib vs comparator arm gefitinib or erlotinib; for median PFS: patients with an L858R mutation, comparator arm gefitinib or erlotinib
[16] = tested on: patients with EGFR T790M-mediated drug resistance; conditions: cited from earlier work
[17] = tested on: patients with advanced EGFR mutant NSCLC; conditions: initial therapy; cited from earlier work

## O=C(Nc1nccs1)C(c1cc(F)ccc1O)N1Cc2ccccc2C1=O (stereo not drawn) [EAI045]
EGFR-mutant models
  single agent efficacy: not effective as a single agent
EGFR
  co-binding with osimertinib: did indeed co-bind with osimertinib and increase EGFR precipitation

## O=C(Nc1nccs1)C(c1ccccc1)N1Cc2ccc(-c3ccc4[nH]ccc4c3)cc2C1=O (stereo not drawn) [JBJ-02-112-05]
[1]; 100mg/kg
  change in tumor volume: ineffective
[2]; 100mg/kg
  phosphorylation of EGFR and downstream signaling in tumors: also inhibited phosphorylation of EGFR and downstream signaling pathways although not as robustly as JBJ-04-125-02
L858R/T790M EGFR
  IC50: 15 nM

## O=C(Nc1nccs1)C(c1cc(F)ccc1O)N1Cc2ccc(-c3ccc(N4CCNCC4)cc3)cc2C1=O (stereo not drawn) [JBJ-04-125-02]
L858R/T790M Ba/F3 cells
  resistant colonies: 72%
[3]
  tumor volume change at day 18: minimal reduction in tumor volume
[3]; osimertinib 25mg/kg, JBJ-04-125-02 100mg/kg, 35 days
  tumor growth: tumor stasis and occasional shrinkage in some mice
[1]; 50mg/kg long-term treatment
  weight loss or signs of toxicity: not associated with weight loss or overt signs of toxicity
[1]; 50mg/kg, within 4 weeks, sustained for 15 weeks
  change in tumor volume: marked tumor regressions
H3255GR cells [4]
  apoptosis (Caspase-3/7 activity): no more effective than DMSO
[5]
  inhibition of cell proliferation: not as potent as gefitinib in inhibiting cell proliferation
[2]; 50mg/kg and 100mg/kg
  phosphorylation of EGFR, AKT and ERK1/2 in tumors: effectively inhibited phosphorylation of EGFR, AKT and ERK1/2
Parental Ba/F3 cells
  inhibition of growth: did not inhibit the growth
MAP4K5
  % control: 9.5 % control
Panel of 468 kinases
  S-Score (35): 0.02
H1975 cells [6]
  EGFR and ERK1/2 phosphorylation: downregulate EGFR and ERK1/2 phosphorylation more potently than osimertinib
Pharmacokinetic study; 3 mg/kg intravenous (IV) dose
  area under the curve (AUClast): 728577 ng·min/mL
  half-life: 3 h
Pharmacokinetic study; 20mg/kg oral dose
  average maximal plasma concentration: 1.1 µM
  oral bioavailability: 3%
[7]
  sensitivity of cell proliferation: resistant
H3255GR cells [8]
  confluency at 2 weeks: reached full confluency
[9]
  inhibition of cell proliferation: could inhibit cell proliferation as a single agent
[10]
  binding affinity: lacks binding affinity
H1975 cells [11]
  concentration inhibiting cell proliferation: low nanomolar concentrations
TIE2
  % control: 33 % control
[12]
  inhibition of growth: did not inhibit the growth
TIE1
  % control: 29 % control
[13]
  EGFR, AKT and ERK1/2 phosphorylation in tumors: reduction in EGFR phosphorylation but only subtle changes in AKT and ERK1/2 phosphorylation
H3255GR cells [14]
  sensitivity of cell proliferation: resistant

## C#Cc1cccc(Nc2ncnc3cc(OCCOC)c(OCCOC)cc23)c1 [erlotinib]
[15]
  PFS: 10.2 months
  median PFS: 9.5 months

## C=CC(=O)Nc1cc(Nc2nccc(-c3cn(C)c4ccccc34)n2)c(OC)cc1N(C)CCN(C)C [osimertinib, reference compound]
[16]
  progression free survivals (PFS): 9.9–12.3 months
  response rate (RR): 62–71%
[3]
  tumor volume change at day 18: minimal reduction in tumor volume
[3]; osimertinib 25mg/kg alone or with JBJ-04-125-02 100mg/kg, 28 days
  tumor regression: ~100%
H3255GR cells [4]
  apoptosis (Caspase-3/7 activity): time-dependent increase in apoptosis
H3255GR cells [8]
  confluency at 2 weeks: 24%
[13]
  EGFR, AKT and ERK1/2 phosphorylation in tumors: complete inhibition of EGFR phosphorylation
[17]
  PFS: 19.3 months
  RR: 77%
[15]
  PFS: 18.9 months
  median PFS: 14.4 months
H3255GR cells [14]
  sensitivity of cell proliferation: sensitive
